Here are results for twelve compounds from US20240124444A1 (Celgene Corporation, priority 2020, published 2024).

Like-named read-outs stand apart in the source and are kept apart here.

The experiment relates to C. parvum strain UGA1. In words: C. parvum growth inhibition assay (Nluc luminescence in HCT-8 cells). In kind it is cell-based, Cryptosporidium parvum. The following applies: for inhibition at 1 µM / inhibition at 10 µM / EC50: Cryptosporidium parvum; for inhibition at 1 µM / inhibition at 10 µM: HCT-8; for inhibition at 1 µM: read-out: % inh @ 1 uM C. parvum; for inhibition at 10 µM: read-out: % inh @ 10 uM C. parvum; for EC50: HCT-8, 48 h, C. parvum growth inhibition in HCT-8 cells, 48 hours, 6 concentrations 10-0.04 μM.

[1] abbreviates: single point inhibition at 1 uM.
Where [2] appears, read: single point inhibition at 10 uM.
Setting [3] is: single point inhibition @ 10 uM.

For `Cn1cc(C(=O)Nc2cc3[nH]c(-c4ccnc(O[C@H]5CC[C@@H](O)CC5)n4)cc3cn2)cn1` [Example 325, N-(2-(2-((1s,4s)-4-hydroxycyclohexyloxy)pyrimidin-4-yl)-1H-pyrrolo[3,2-c]pyridin-6-yl)-1-methyl-1H-pyrazole-4-carboxamide], under setting [1], the “% inh @ 1 uM C. parvum” value was “D (single point inhibition values of 0-33% (activity level D))”. Besides, under setting [2], the “% inh @ 10 uM C. parvum” value is recorded as “D (single point inhibition values of 0-33% (activity level D))”. In the case of `Cn1c(-c2ccnc(C(F)(F)F)n2)cc2cnc(NC(=O)C3CC3)cc21` [Example 302, N-(1-methyl-2-(2-(trifluoromethyl)pyrimidin-4-yl)-1H-pyrrolo[3,2-c]pyridin-6-yl)cyclopropanecarboxamide], the inhibition at 1 µM under setting [1] lay in the range of 0 to 33%. Besides, the inhibition at 10 µM under setting [2] was 0 to 33%. `Cc1cccc(-c2cc3cnc(NC(=O)C4CC4)cc3n2C)n1` [Example 69, N-(1-methyl-2-(6-methylpyridin-2-yl)-1H-pyrrolo[3,2-c]pyridin-6-yl)cyclopropanecarboxamide]: the EC50 was more than 1 µM.

Compound `Cn1cc(Nc2cc3[nH]c(-c4ccnc(C#N)c4)cc3cn2)cn1` [Example 56, 4-(6-(1-methyl-1H-pyrazol-4-ylamino)-1H-pyrrolo[3,2-c]pyridin-2-yl)picolinonitrile] showed an EC50 of more than 1 µM. Also, the inhibition at 1 µM (single point inhibition @ 1 uM) lay within 0 to 33%. Under setting [3], the inhibition at 10 µM is 67 to 100%. In the case of `Cc1nccc(-c2cc3cnc(NC(=O)c4cnn(C)c4)cc3[nH]2)n1` [Example 185, 1-methyl-N-(2-(2-methylpyrimidin-4-yl)-1H-pyrrolo[3,2-c]pyridin-6-yl)-1H-pyrazole-4-carboxamide], the inhibition at 1 µM (single point inhibition @ 1 uM) lay in the range of 0 to 33%. The inhibition at 10 µM under setting [3] lay within 67 to 100%. For `CO[C@H]1C[C@H](C(=O)Nc2cc3[nH]c(-c4ccnc(C)c4)cc3cn2)C1` [Example 161, (1r,3r)-3-methoxy-N-(2-(2-methylpyridin-4-yl)-1H-pyrrolo[3,2-c]pyridin-6-yl)cyclobutanecarboxamide] the same measures were 0 to 33% and 67 to 100%.

With `Cn1cnc(-c2cc3cnc(NC4CCOCC4)cc3[nH]2)c1` [Example 123, 2-(1-methyl-1H-imidazol-4-yl)-N-(tetrahydro-2H-pyran-4-yl)-1H-pyrrolo[3,2-c]pyridin-6-amine], the EC50 is more than 1 µM. With `COC1CCC(OC(=O)Nc2cc3[nH]c(-c4ccnc(C)c4)cc3cn2)CC1` (stereo not drawn) [Example 206, 4-methoxycyclohexyl 2-(2-methylpyridin-4-yl)-1H-pyrrolo[3,2-c]pyridin-6-ylcarbamate], under setting [1], the inhibition at 1 µM is 0 to 33%. The inhibition at 10 µM under setting [2] fell in the range of 67 to 100%. `Cn1cnc(-c2cc3cnc(NC(=O)C4CC4)cc3n2C)c1` [Example 342, N-(1-methyl-2-(1-methyl-1H-imidazol-4-yl)-1H-pyrrolo[3,2-c]pyridin-6-yl)cyclopropanecarboxamide]: the EC50 was more than 1 µM. On the same count and under the same terms, under `Cn1c(-c2ccnc(NCC(F)(F)F)c2)cc2cnc(NC3CCOCC3)cc21` [Example 382, 1-methyl-N-(tetrahydro-2H-pyran-4-yl)-2-(2-(2,2,2-trifluoroethylamino)pyridin-4-yl)-1H-pyrrolo[3,2-c]pyridin-6-amine] stands more than 1 µM; under `Cc1cc(-c2cc3cnc(NC4CCCOC4)cc3[nH]2)ccn1` (stereo in doubt) [Example 355, (S)-2-(2-methylpyridin-4-yl)-N-(tetrahydro-2H-pyran-3-yl)-1H-pyrrolo[3,2-c]pyridin-6-amine], more than 1 µM. In the case of `Cn1cc(C(=O)Nc2cc3[nH]c(-c4ccnc(O[C@H]5CC[C@H](O)CC5)n4)cc3cn2)cn1` [Example 85, N-(2-(2-((1r,4r)-4-hydroxycyclohexyloxy)pyrimidin-4-yl)-1H-pyrrolo[3,2-c]pyridin-6-yl)-1-methyl-1H-pyrazole-4-carboxamide], the EC50 was more than 1 µM. Under “single point inhibition @ 1 uM”, the inhibition at 1 µM was in the range of 67 to 100%. Besides, the inhibition at 10 µM under setting [3] was in the range of 0 to 33%.
